In patent US20010053796A1, “Delta-aminolevulinic acid for prevention and treatment of infection microorganisms and parasite” (priority 2000, published 2001):
Marks after values point to notes of the source that are not given here.

Experiments:
Edwardsiella tarda = assay: Prevention effect for artificial infection (abdominal injection of bacteria); type: in vivo, Sebastes schlegeli; conditions: for Mortality during Cultivation: dead of 20 fish
Protocol: (§1) The water temperature was maintained at 20° C. (±2° C. ) throughout the experiment.
(§2) As the same method of above Experiment 1, fishes of both control group and experiment group were prepared and artificially infected by direct abdominal injection of Edwardsiella tarda 10^5 CFU per 1 fish. Each experimental fish was moved to fish tanks for monitoring and monitored for mortality according to infection for 2 weeks and viability after 2 weeks.

Streptococcus sp. [1] = assay: as above; type: in vivo, Bastardhalibut; conditions: for Mortality during Cultivation: dead of 20 fish
Protocol: as §1, §2
(§3) Bastardhalibut and Sebastes schlegeli were infected by Streptococcus sp. by abdominal injection with the same method of fish breeding, δ-aminolevulinic acid treatment and artificial infection carried out in Experiment 1 and 2. Each experimental fish was moved to fish tanks for monitoring and monitored for mortality according to infection for 2 weeks. […] The treated group, with δ-aminolevulinic acid by tank administration method and oral administration method, has shown viability of higher than 65%.

Streptococcus sp. [2] = assay: as above; type: in vivo, Sebastes schlegeli; conditions: for Mortality during Cultivation: dead of 20 fish
Protocol: The water temperature was maintained at 20° C. (±2° C. ) throughout the experiment. […]
as §3

Birnavirus = assay: Treatment effect on eel disease of Birnavirus (field); type: in vivo; conditions: 0.1˜10 ppm added to the farm; after 3 weeks administration
Protocol: In the example, the experiment was carried out in the field at the Eel Aguacultural Farm, Gochang and Kunsan, in Chunbuk, Korea. Eels were dead by infection of Birnavirus, which was easely confirmed by microscopical or electron microscopical observation.
ALA, at the concentration range of 0.1˜10 ppm was added to the farm for 3 months. After 3 weeks administration, motality was decreased to less than 10% (1˜2kg).

marine birnavirus (MABV) = assay: Change of virus infection value (TCID50) in culture cells; type: cell-based; conditions: for Infection value by MABV: 8 mM
Source text: In this experiment, change of infection value by virus according to δ-aminolevulinic acid treatment was examined by TCID50 using fish cell line for marine birnavirus (MABV) which infects major marine cultivating fish species, Bastardhalibut, Pagrus major and Sebastes schlegeli and acts as a cause for mass mortality. The virus used in this experiment was isolated from Bastardhalibut of a fish farm nearby Yeosu. Virus infection value was checked in CHSE-214 cell and then used as experimental virus solution. Virus incubation solution and δ-aminolevulinic acid diluted solution were combined with same amount (8 mL) and reacted for 30 min. and then, inoculated to culture cell and incubated at 20° C. Temporary change of virus infection value was compared with that of HBSS reaction virus solution (control).

[3] = system: White Spot Syndrome Virus (WSSV); assay: Prevention for White Spot Syndrome Virus infected shrimp; type: in vivo, Penaeus Chinesis
Protocol: The Shrimps (Penaeus Chinesis, size 6˜8 cm) were immersed in 0.01˜10 ppm of EnviroVax for 1.5 hr during 3 days and injected viral homogenate at 4 day.
The Viral homogenate was prepared as follows:
Homogenize 1 g of tissue (gill and stomach) in 1 ml PBS.
Centrifuge at 2,000 rpm for 10 min. at 4° C.
Filter the supernatant by using the 0.45 μm membrane filter.
Dilute the filtrate (1 part of filtrate to 10 parts of PBS).

NCC(=O)CCC(=O)O [δ-aminolevulinic acid]
Viability (Edwardsiella tarda; orally, 0.01 ppm in feed): 70% | Mortality during Cultivation (Edwardsiella tarda; orally, 0.01 ppm in feed): 6 | Viability (Edwardsiella tarda; orally, 1.0 ppm in feed): 80% | Mortality during Cultivation (Edwardsiella tarda; orally, 1.0 ppm in feed): 4 | Viability (Edwardsiella tarda; orally, 10 ppm in feed): 85% | Mortality during Cultivation (Edwardsiella tarda; orally, 10 ppm in feed): 3 | Viability (Edwardsiella tarda; orally, 100 ppm in feed): 90% | Mortality during Cultivation (Edwardsiella tarda; orally, 100 ppm in feed): 2 | Viability (Edwardsiella tarda; to fish tanks, 0.01 ppm): 65% | Mortality during Cultivation (Edwardsiella tarda; to fish tanks, 0.01 ppm): 7 | Viability (Edwardsiella tarda; to fish tanks, 0.1 ppm): 75% | Mortality during Cultivation (Edwardsiella tarda; to fish tanks, 0.1 ppm): 5 | Viability (Edwardsiella tarda; to fish tanks, 1.0 ppm): 90% | Mortality during Cultivation (Edwardsiella tarda; to fish tanks, 1.0 ppm): 2 | Viability (Edwardsiella tarda; to fish tanks, 10 ppm): 85% | Mortality during Cultivation (Edwardsiella tarda; to fish tanks, 10 ppm): 3 | Viability (Streptococcus sp. [1]; orally, 0.1 ppm in feed): 65% | Mortality during Cultivation (Streptococcus sp. [1]; orally, 0.1 ppm in feed): 7 | Viability (Streptococcus sp. [1]; orally, 1.0 ppm in feed): 65% | Mortality during Cultivation (Streptococcus sp. [1]; orally, 1.0 ppm in feed): 7 | Viability (Streptococcus sp. [1]; orally, 10 ppm in feed): 80% | Mortality during Cultivation (Streptococcus sp. [1]; orally, 10 ppm in feed): 4 | Viability (Streptococcus sp. [1]; orally, 100 ppm in feed): 85% | Mortality during Cultivation (Streptococcus sp. [1]; orally, 100 ppm in feed): 3 | Viability (Streptococcus sp. [1]; to fish tanks, 0.01 ppm): 60% | Mortality during Cultivation (Streptococcus sp. [1]; to fish tanks, 0.01 ppm): 8 | Viability (Streptococcus sp. [1]; to fish tanks, 0.1 ppm): 65% | Mortality during Cultivation (Streptococcus sp. [1]; to fish tanks, 0.1 ppm): 7 | Viability (Streptococcus sp. [1]; to fish tanks, 1.0 ppm): 75% | Mortality during Cultivation (Streptococcus sp. [1]; to fish tanks, 1.0 ppm): 5 | Viability (Streptococcus sp. [1]; to fish tanks, 10 ppm): 85% | Mortality during Cultivation (Streptococcus sp. [1]; to fish tanks, 10 ppm): 3 | Viability (Streptococcus sp. [2]; orally, 0.1 ppm in feed): 70% | Mortality during Cultivation (Streptococcus sp. [2]; orally, 0.1 ppm in feed): 6 | Viability (Streptococcus sp. [2]; orally, 1.0 ppm in feed): 70% | Mortality during Cultivation (Streptococcus sp. [2]; orally, 1.0 ppm in feed): 6 | Viability (Streptococcus sp. [2]; orally, 10 ppm in feed): 85% | Mortality during Cultivation (Streptococcus sp. [2]; orally, 10 ppm in feed): 3 | Viability (Streptococcus sp. [2]; orally, 100 ppm in feed): 90% | Mortality during Cultivation (Streptococcus sp. [2]; orally, 100 ppm in feed): 2 | Viability (Streptococcus sp. [2]; to fish tanks, 0.01 ppm): 60% | Mortality during Cultivation (Streptococcus sp. [2]; to fish tanks, 0.01 ppm): 8 | Viability (Streptococcus sp. [2]; to fish tanks, 0.1 ppm): 65% | Mortality during Cultivation (Streptococcus sp. [2]; to fish tanks, 0.1 ppm): 7 | Viability (Streptococcus sp. [2]; to fish tanks, 1.0 ppm): 85% | Mortality during Cultivation (Streptococcus sp. [2]; to fish tanks, 1.0 ppm): 3 | Viability (Streptococcus sp. [2]; to fish tanks, 10 ppm): 80% | Mortality during Cultivation (Streptococcus sp. [2]; to fish tanks, 10 ppm): 4 | mortality (Birnavirus): less than 10% | Infection value by MABV (marine birnavirus (MABV); 0 days after inoculation): 4.3* Log TCID50/mL | Infection value by MABV (marine birnavirus (MABV); 1 day after inoculation): 3.8 Log TCID50/mL | Infection value by MABV (marine birnavirus (MABV); 3 days after inoculation): 3.5 Log TCID50/mL | Infection value by MABV (marine birnavirus (MABV); 5 days after inoculation): 2.3 Log TCID50/mL | Infection value by MABV (marine birnavirus (MABV); 7 days after inoculation): <1.8 Log TCID50/mL | effect on MABV within culture cell system (marine birnavirus (MABV); reacted 30 min before inoculation): inactivated | Cumulative mortality ([3]; 0.01 ppm, after injection for 3 weeks): 100% | Mortality after injection for 3 weeks ([3]; 0.01 ppm, day 1, 50 shrimp): 0 | Mortality after injection for 3 weeks ([3]; 0.01 ppm, day 2, 50 shrimp): 0 | Mortality after injection for 3 weeks ([3]; 0.01 ppm, day 3, 50 shrimp): 15 | Mortality after injection for 3 weeks ([3]; 0.01 ppm, day 4, 50 shrimp): 20 | Mortality after injection for 3 weeks ([3]; 0.01 ppm, day 5, 50 shrimp): 12 | Mortality after injection for 3 weeks ([3]; 0.01 ppm, day 6, 50 shrimp): 3 | Cumulative mortality ([3]; 0.1 ppm, after injection for 3 weeks): 12% | Mortality after injection for 3 weeks ([3]; 0.1 ppm, day 1, 50 shrimp): 0 | Mortality after injection for 3 weeks ([3]; 0.1 ppm, day 2, 50 shrimp): 0 | Mortality after injection for 3 weeks ([3]; 0.1 ppm, day 3, 50 shrimp): 2 | Mortality after injection for 3 weeks ([3]; 0.1 ppm, day 4, 50 shrimp): 3 | Mortality after injection for 3 weeks ([3]; 0.1 ppm, day 5, 50 shrimp): 1 | Mortality after injection for 3 weeks ([3]; 0.1 ppm, day 6, 50 shrimp): 0 | Mortality after injection for 3 weeks ([3]; 0.1 ppm, day 7, 50 shrimp): 0 | Mortality after injection for 3 weeks ([3]; 0.1 ppm, day 21, 50 shrimp): 0 | Cumulative mortality ([3]; 1.0 ppm, after injection for 3 weeks): 8% | Mortality after injection for 3 weeks ([3]; 1.0 ppm, day 1, 50 shrimp): 0 | Mortality after injection for 3 weeks ([3]; 1.0 ppm, day 2, 50 shrimp): 1 | Mortality after injection for 3 weeks ([3]; 1.0 ppm, day 3, 50 shrimp): 2 | Mortality after injection for 3 weeks ([3]; 1.0 ppm, day 4, 50 shrimp): 1 | Mortality after injection for 3 weeks ([3]; 1.0 ppm, day 5, 50 shrimp): 0 | Mortality after injection for 3 weeks ([3]; 1.0 ppm, day 6, 50 shrimp): 0 | Mortality after injection for 3 weeks ([3]; 1.0 ppm, day 7, 50 shrimp): 0 | Mortality after injection for 3 weeks ([3]; 1.0 ppm, day 21, 50 shrimp): 0 | Cumulative mortality ([3]; 10 ppm, after injection for 3 weeks): 6% | Mortality after injection for 3 weeks ([3]; 10 ppm, day 1, 50 shrimp): 0 | Mortality after injection for 3 weeks ([3]; 10 ppm, day 2, 50 shrimp): 0 | Mortality after injection for 3 weeks ([3]; 10 ppm, day 3, 50 shrimp): 3 | Mortality after injection for 3 weeks ([3]; 10 ppm, day 4, 50 shrimp): 0 | Mortality after injection for 3 weeks ([3]; 10 ppm, day 5, 50 shrimp): 0 | Mortality after injection for 3 weeks ([3]; 10 ppm, day 6, 50 shrimp): 0 | Mortality after injection for 3 weeks ([3]; 10 ppm, day 7, 50 shrimp): 0 | Mortality after injection for 3 weeks ([3]; 10 ppm, day 21, 50 shrimp): 0 | Cumulative mortality ([3]; immersion 1.0 ppm, 1.5 hr during 3 days before virus injection, 3 weeks): 8% | Cumulative mortality ([3]; immersion 10 ppm, 1.5 hr during 3 days before virus injection, 3 weeks): 6%
